According to patent publication US5716797A, “Stable two-part reagent for the measurement of creatine kinase activity” (Wako Pure Chemical Industries, Ltd., priority 1995, dated 1998):

How the values were obtained:
Assay type in all cases: biochemical
[1] = system: creatine kinase (CK) in human serum; assay: CK activity measured with enzyme solutions containing SH compounds as CK reactivator, fresh and after 1 month of storage (Example 1 / Comparative Example 1); settings: for CK activity value, Average: average of 5 samples; for CK activity, relative value: NAC just after preparation = 100%
Protocol: The resulting solution was adjusted to pH 6.7 with sodium hydroxide and stored at a predetermined temperature for a predetermined period. The thus obtained solution were used as enzyme solutions.
(§1) Five fresh human serum samples were used.
(§2) To 8 μl of each sample was added 320 μl of each enzyme solution, followed by preincubation for 5 minutes. Then, 80 μl of the substrate solution was added to initiate the reaction and the change of absorbance per minute was measured for 3 minutes from 2 minutes after the addition of the substrate solution. The CK activity value was calculated from the molecular extinction coefficient of the NADPH produced.
(§3) As a measuring apparatus, an Autoanalyzer Hitachi Model 7150 was used, and the measurement was carried out at 37° C. by use of dual wavelength (λ1 =405 nm, λ2 =340 nm).
Enzyme solutions were prepared in the same manner as in Example 1 by use of the same reagents as in Example 1 except for using a predetermined concentration(s) of one or two SH compounds properly selected from the above-mentioned CK reactivators, in place of the CK reactivator(s) used in Example 1.
CK activity was measured in the same manner as in Example 1.

[2] = system: creatine kinase (CK) in human serum; assay: CK activity measured with enzyme and substrate solutions stored at 10° C. for up to 7 months (Example 2 / Comparative Example 2); settings: for relative value of CK activity: enzyme solution prepared at the time of use = 100%
Protocol: An enzyme solution was prepared in the same manner as in Example 1 by use of the same reagents as in Example 1 except for using 100 mM of TG in place of the CK reactivator(s) used in Example 1.
Different 10 fresh human serum samples were used for different measuring operations.
CK activity was measured by the same procedure as described in Example 1 except for using the above-mentioned enzyme solution and substrate solution, both solutions stored at 10° C. for a predetermined time, and each of the above-mentioned samples.
An enzyme solution was prepared in the same manner as in Example 1 by use of the same reagents as in Example 1 except for using 26 mM of NAC in place of the CK reactivator(s) used in Example 1.
CK activity was measured by the same procedure as described in Example 1 except for using the above-mentioned enzyme solution and substrate solution, both solutions stored at 10° C. for a predetermined period, and each of the above-mentioned samples.

[3] = molecular target: T1, creatine kinase (CK) in human serum (Homo sapiens, UniProt P06732); assay: Inhibitory effect of oxidized products of SH compounds on CK activity (HK/G6PDH UV method, NAC 26 mM as reactivator); settings: for CK activity value / CK activity value, Average: 5 mM SH compound oxidized product; for CK activity value: NAC 26 mM, 37° C.; for CK activity value, Average: average of 5 samples
T1 construct: Five fresh human serum samples were used; from tissue; host or cells: fresh human serum
T1 sequence (P06732 whole entry): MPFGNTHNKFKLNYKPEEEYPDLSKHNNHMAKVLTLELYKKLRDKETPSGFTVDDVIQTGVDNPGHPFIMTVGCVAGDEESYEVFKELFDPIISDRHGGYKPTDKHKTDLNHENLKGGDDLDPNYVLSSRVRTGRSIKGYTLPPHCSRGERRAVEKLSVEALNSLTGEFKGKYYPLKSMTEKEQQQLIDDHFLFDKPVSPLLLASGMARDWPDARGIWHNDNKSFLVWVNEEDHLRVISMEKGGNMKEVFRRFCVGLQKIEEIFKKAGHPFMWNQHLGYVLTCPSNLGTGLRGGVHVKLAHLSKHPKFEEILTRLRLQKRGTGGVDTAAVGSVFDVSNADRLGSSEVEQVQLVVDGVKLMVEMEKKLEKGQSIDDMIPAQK
Protocol: Investigation on the inhibitory effect of oxidized products of SH compounds on CK activity
Thus, oxidized products of the SH compounds, respectively, were obtained.
NAC (26 mM) as CK reactivator, each 5 mM of SH compound oxidized product obtained above, 2.6 mM of ADP, 3.9 u/ml of HK (available from Oriental Yeast Co., Ltd.), 8.0 u/ml of G6PDH (available from Oriental Yeast Co., Ltd.), 2.6 mM of NADP, 21 mM of glucose, 10 mM of magnesium acetate, 6.5 mM of AMP, 0.013 mM of APSA, 0.1% (w/v) of sodium azide and 2 mM of EDTA-2Na were dissolved in 128 mM imidazole-acetate buffer (pH 6.7). The thus obtained solutions were adjusted to pH 6.7 with sodium hydroxide to obtain enzyme solutions.
An enzyme solution containing no SH compound oxidized product was prepared as a control standard solution.
as §1, §2, §3
Tables 2 and 3 show the CK activity values of the 5 samples in each case and the average thereof.

**Q.** Which results are given for OCC(O)CS (stereo not shown) [TG, thioglycerol]?
**A.** retaining CK-reactivating ability for a long period of time in an aqueous solution [1]: capable of retaining CK-reactivating ability for a long period of time; CK activity value ([1]; Sample 1, enzyme solution just after preparation, TG 100 mM, 2ME 26 mM, 2MES 26 mM, NAC 26 mM): 184 IU/l; CK activity value ([1]; Sample 1, enzyme solution stored at 10° C. for 1 month, TG 100, 2ME 26, 2MES 26, NAC 26, L-cysteine 6.5, GSH 12, TDG 5, DTT 6.5 mM): 183 IU/l; CK activity value ([1]; Sample 1, enzyme solution stored at 20° C. for 1 month, TG 100, 2ME 26, 2MES 26, NAC 26, L-cysteine 6.5, GSH 12, TDG 5, DTT 6.5 mM): 180 IU/l; CK activity value ([1]; Sample 2, enzyme solution just after preparation, TG 100 mM, 2ME 26 mM, 2MES 26 mM, NAC 26 mM): 553 IU/l; CK activity value ([1]; Sample 2, enzyme solution stored at 10° C. for 1 month, TG 100, 2ME 26, 2MES 26, NAC 26, L-cysteine 6.5, GSH 12, TDG 5, DTT 6.5 mM): 556 IU/l; CK activity value ([1]; Sample 2, enzyme solution stored at 20° C. for 1 month, TG 100, 2ME 26, 2MES 26, NAC 26, L-cysteine 6.5, GSH 12, TDG 5, DTT 6.5 mM): 549 IU/l; CK activity value ([1]; Sample 3, enzyme solution just after preparation, TG 100 mM, 2ME 26 mM, 2MES 26 mM, NAC 26 mM): 151 IU/l; CK activity value ([1]; Sample 3, enzyme solution stored at 10° C. for 1 month, TG 100, 2ME 26, 2MES 26, NAC 26, L-cysteine 6.5, GSH 12, TDG 5, DTT 6.5 mM): 154 IU/l; CK activity value ([1]; Sample 3, enzyme solution stored at 20° C. for 1 month, TG 100, 2ME 26, 2MES 26, NAC 26, L-cysteine 6.5, GSH 12, TDG 5, DTT 6.5 mM): 152 IU/l; CK activity value ([1]; Sample 4, enzyme solution just after preparation, TG 100 mM, 2ME 26 mM, 2MES 26 mM, NAC 26 mM): 58 IU/l; CK activity value ([1]; Sample 4, enzyme solution stored at 10° C. for 1 month, TG 100, 2ME 26, 2MES 26, NAC 26, L-cysteine 6.5, GSH 12, TDG 5, DTT 6.5 mM): 57 IU/l; CK activity value ([1]; Sample 4, enzyme solution stored at 20° C. for 1 month, TG 100, 2ME 26, 2MES 26, NAC 26, L-cysteine 6.5, GSH 12, TDG 5, DTT 6.5 mM): 57 IU/l; CK activity value ([1]; Sample 5, enzyme solution just after preparation, TG 100 mM, 2ME 26 mM, 2MES 26 mM, NAC 26 mM): 88 IU/l; CK activity value ([1]; Sample 5, enzyme solution stored at 10° C. for 1 month, TG 100, 2ME 26, 2MES 26, NAC 26, L-cysteine 6.5, GSH 12, TDG 5, DTT 6.5 mM): 88 IU/l; CK activity value ([1]; Sample 5, enzyme solution stored at 20° C. for 1 month, TG 100, 2ME 26, 2MES 26, NAC 26, L-cysteine 6.5, GSH 12, TDG 5, DTT 6.5 mM): 88 IU/l; CK activity value, Average ([1]; enzyme solution just after preparation, TG 100 mM, 2ME 26 mM, 2MES 26 mM, NAC 26 mM): 207 IU/l; CK activity value, Average ([1]; enzyme solution stored at 10° C. for 1 month, TG 100, 2ME 26, 2MES 26, NAC 26, L-cysteine 6.5, GSH 12, TDG 5, DTT 6.5 mM): 208 IU/l; CK activity value, Average ([1]; enzyme solution stored at 20° C. for 1 month, TG 100, 2ME 26, 2MES 26, NAC 26, L-cysteine 6.5, GSH 12, TDG 5, DTT 6.5 mM): 206 IU/l; CK activity, relative value ([1]; enzyme solution just after preparation): 101.4%; CK activity, relative value ([1]; enzyme solution stored at 10° C. for 1 month): 101.9%; CK activity, relative value ([1]; enzyme solution stored at 20° C. for 1 month): 100.9%; average of CK activity values ([2]; enzyme solution prepared at the time of use, 1 month measurement, 10 samples): 204 IU/l.; average of CK activity values ([2]; enzyme solution prepared at the time of use, 3 month measurement, 10 samples): 200 IU/l.; average of CK activity values ([2]; enzyme solution prepared at the time of use, 6 month measurement, 10 samples): 168 IU/l.; average of CK activity values ([2]; enzyme solution prepared at the time of use, 7 month measurement, 10 samples): 192 IU/l.; average of CK activity values ([2]; just after preparation, average of 10 human serum samples, TG 100 mM or NAC 26 mM): 240 IU/l.; average of CK activity values ([2]; solutions stored at 10° C. for 1 month, 10 samples): 202 IU/l.; average of CK activity values ([2]; solutions stored at 10° C. for 3 month, 10 samples): 198 IU/l.; average of CK activity values ([2]; solutions stored at 10° C. for 6 month, 10 samples): 168 IU/l.; average of CK activity values ([2]; solutions stored at 10° C. for 7 month, 10 samples): 190 IU/l.; relative value of CK activity ([2]; stored at 10° C. for 1 month): 99.0%; relative value of CK activity ([2]; stored at 10° C. for 3 month): 99.0%; relative value of CK activity ([2]; stored at 10° C. for 6 month): 100.0%; relative value of CK activity ([2]; stored at 10° C. for 7 month): 99.0%

**Q.** With c1ccc(SSc2ccccc2)cc1 [Thiophenol oxidized product] as the molecule, how does the CK activity value ([3]; Sample 1 (fresh human serum)) read?
**A.** 73 IU/l.

**Q.** And the CK activity value ([3]; Sample 2)?
**A.** 180 IU/l.

**Q.** What about the CK activity value ([3]; Sample 3) of the same molecule?
**A.** 55 IU/l.

**Q.** And the CK activity value ([3]; Sample 4)?
**A.** 139 IU/l.

**Q.** What about the CK activity value ([3]; Sample 5) of the same molecule?
**A.** 50 IU/l.

**Q.** What about the “CK activity value, Average” value [3] of the same molecule?
**A.** 99 IU/l.

**Q.** And the activity at 5000 µM ([3]; read-out: CK activity, relative value)?
**A.** 44.1%

**Q.** For Mercapto-succinic acid, which CK activity value ([3]; Sample 1 (fresh human serum)) is on record?
**A.** 122 IU/l.

**Q.** What about the CK activity value ([3]; Sample 2) of the same molecule?
**A.** 330 IU/l.

**Q.** And the CK activity value ([3]; Sample 3)?
**A.** 98 IU/l.

**Q.** And the CK activity value ([3]; Sample 4)?
**A.** 285 IU/l.

**Q.** What about the CK activity value ([3]; Sample 5) of the same molecule?
**A.** 80 IU/l.

**Q.** What about the “CK activity value, Average” value [3] of the same molecule?
**A.** 183 IU/l.

**Q.** And the “CK activity, relative value” ([3]; average with enzyme solution containing no SH compound oxidized product = 100%, 5 mM oxidized product)?
**A.** 81.0%
